Measurements from US20250179047A1, “5-[7-(3,4-DIHYDRO-1H-ISOQUINOLINE-2-CARBONYL)-1,2,3,4 TETRAHYDROISOQUINOLIN-6-YL]-1H-PYRROLE-3-CARBOXAMIDE DERIVATIVES, PHARMACEUTICAL COMPOSITIONS CONTAINING THEM AND THEIR USES AS PRO-APOPTOTIC AGENTS” (LES LABORATOIRES SERVIER, priority 2022, published 2025).

How the values were obtained:
BCL2 F104I = BCL2 F104I (Homo sapiens, UniProt P10415, F104I); test: TR-FRET competitive binding assay, BCL2 F104I; conditions: Ki determined from IC50, read-out: TR_FRET EKI_Bcl2 F104I
Experimental: The relative binding potency of each compound was determined in a competitive binding assay using time resolved-fluorescence resonance energy transfer (TR-FRET). The method utilised a fluorescein labelled peptide derived from PUMA (5Flu-Ahx-[…]-NH2 wherein Ahx means 6-hexanoic acid monomer and the amino acid sequence is referred to as SEQ ID:01) which binds to a terbium labelled BCL2 or BCLXL protein. The degree of binding or corresponding compound inhibition can be quantified by the TR-FRET signal between the terbium donor and fluorescein acceptor.
The human BCL2_wild-type (also named BCL2_wt), BCL2_G101V mutant and BCLXL_wild-type were E. coli expressed as a N-terminal Halo-fusion proteins and singly labelled with Terbium on the Halo protein to afford the following amino acid sequences:
wherein the BCL2(1-207) sequence corresponds to UniProtKB® primary accession number P10415 and the BCLXL(2-196) sequence corresponds to UniProtKB® primary accession number Q07817-1.
The assay was performed in a 40 μL volume in white 384-standard well plates (Corning #3574). An 11-point serial dilution of each compound was prepared in DMSO and transferred directly to plate followed by addition of fluorescein labelled peptide and lastly protein. Final assay conditions were 0.5 nM BCL2_wt, BCL2_G101V, BCL2_D103Y, BCL2_F104I, BCL2_D111A or BCLXL_wt, 2 or 20 nM fluorescein labelled peptide, 50 mM Hepes pH 7.5, 150 mM NaCl, 0.5 mM TCEP (Tris(2-carboxyethyl)phosphine), 0.05% Tween 20, 5% DMSO. The mixture was incubated for 2 hours at 23° C.
TR-FRET measurements were performed on a Biotek Synergy Neo plate reader. TR-FRET was measured by excitation of the Terbium-donor at 340 nm and subsequent (delay time 100 μs) measurement of terbium and fluorescein emission at 495 nm and 520 nm, respectively, over a collection time of 300 μs. The TR-FRET signal was calculated as the emission-ratio at 520 nm over 495 nm.
The TR-FRET ratio readout for test compounds was normalized against 0% inhibition controls wells and 100% inhibition control wells. Test compound potency (IC50) was estimated by nonlinear regression using the sigmoidal dose-response (variable slope) using Xlfit 4 (IDBS, Guildford, Surrey, UK, model 205). Were the IC50 could not be determined the % inhibition at the highest tested concentration is given.
y=(A+((B−A)/(1+((C/x)^D))))
where y is the normalized TR-TRET ratio measurement for a given concentration of test compound, x is the concentration of test compound, A is the estimated efficacy (% inhibition) at infinite compound dilution, and B is the maximal efficacy (% inhibition). C is the IC50 value and D is the Hill slope coefficient.
The K1 values were determined from the IC50 values according to Cer et al, Nucleic Acids Res, 2009, July 1; 37 (WebServer issue): W441-W445.

BCL2 WT = BCL2 WT (Homo sapiens (Human), UniProt P10415); test: TR-FRET competitive binding assay, BCL2 WT; conditions: Ki determined from IC50, read-out: TR_FRET EKI_Bcl2 WT
In short: (§1)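 Competitive TR-FRET displacement of fluorescein-PUMA peptide (2 or 20 nM) from 0.5 nM terbium-labelled N-terminal Halo-fusion BCL2 (1-207, wild type or mutant) or BCLXL (2-196), expressed in E. coli. Buffer 50 mM Hepes pH 7.5, 150 mM NaCl, 5% DMSO; 2 h at 23°C. 520/495 nm ratio fitted over 11 points for IC50, converted to Ki.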

KMS-12-PE Bcl-2 WT = test: In vitro cytotoxicity CellTiter-Glo 48 h, KMS-12-PE Bcl-2 WT; assay type: cell-based; conditions: Homo sapiens, KMS-12-PE, C50 = concentration needed to reach 50% of the cellular viability
In short: (§2)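 CTG luminescence read-out; C50 = concentration reaching 50% cellular viability. Cells: KMS-12-PE expressing Bcl-2 WT or G101V (lentiviral, TagRFP-sorted). 11-pt curve, 48 h, 37 °C/5% CO2.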

BCL2 G101V [1] = target: BCL2 G101V (Homo sapiens, UniProt P10415, G101V); test: TR-FRET competitive binding assay, BCL2 G101V; conditions: BCL2 G101V; Ki determined from IC50; read-out: TR_FRET EKI_Bcl2 G101V
In short: as §1

BCL2 G101V [2] = test: TR-FRET competitive binding assay, BCL2 G101V; set-up: species or system human; conditions: ratio Ki BCL2 G101V / Ki BCL2 WT
In short: as §1

BCL2 D103Y = BCL2 D103Y (Homo sapiens, UniProt P10415, D103Y); test: TR-FRET competitive binding assay, BCL2 D103Y; conditions: Ki determined from IC50, read-out: TR_FRET EKI_Bcl2 D103Y
In short: as §1

KMS-12-PE Bcl-2 G101V = test: In vitro cytotoxicity CellTiter-Glo 48 h, KMS-12-PE Bcl-2 G101V; assay type: cell-based; conditions: for Ratio (G101V/WT): C50 KMS-12-PE Bcl-2 G101V over C50 KMS-12-PE Bcl-2 WT; for IC50: Homo sapiens, KMS-12-PE, 48 h, CellTiter-Glo, C50 = concentration needed to reach 50% of the cellular viability
In short: as §2

BCLXL WT = BCLXL WT (Homo sapiens (Human), UniProt Q07817); test: TR-FRET competitive binding assay, BCLXL WT; conditions: for Ki: BCLXL WT, Ki determined from IC50, read-out: TR_FRET EKI BclxL; for TR_FRET EKI BCLxL/WT selectivty ratio: ratio Ki BCLxL / Ki BCL2 WT
In short: as §1

BCLXL WT, sequence (Q07817 other isoform, or with tags, fused parts or gaps): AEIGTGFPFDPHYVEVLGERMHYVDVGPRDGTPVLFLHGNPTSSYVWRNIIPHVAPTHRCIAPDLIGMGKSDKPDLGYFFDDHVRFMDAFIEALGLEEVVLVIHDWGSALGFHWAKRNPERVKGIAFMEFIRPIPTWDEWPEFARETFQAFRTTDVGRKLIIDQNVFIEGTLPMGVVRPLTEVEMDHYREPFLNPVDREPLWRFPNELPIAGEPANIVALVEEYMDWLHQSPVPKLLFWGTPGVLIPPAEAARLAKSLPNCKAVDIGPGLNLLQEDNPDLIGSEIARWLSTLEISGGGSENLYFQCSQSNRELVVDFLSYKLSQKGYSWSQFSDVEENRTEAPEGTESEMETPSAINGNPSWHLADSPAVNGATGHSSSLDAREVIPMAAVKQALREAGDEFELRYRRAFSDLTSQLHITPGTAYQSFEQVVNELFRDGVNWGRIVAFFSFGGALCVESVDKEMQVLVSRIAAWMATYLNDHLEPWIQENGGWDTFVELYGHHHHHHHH

Row | Compound | Ki (BCL2 F104I) | Ki (BCL2 WT) | Ki (BCL2 G101V [1]) | TR_FRET EKI G101V/WT selectivty ratio (BCL2 G101V [2]) | Ki (BCL2 D103Y) | Ki (BCLXL WT) | TR_FRET EKI BCLxL/WT selectivty ratio (BCLXL WT) | IC50 (KMS-12-PE Bcl-2 WT) | Ratio (G101V/WT) (KMS-12-PE Bcl-2 G101V) | IC50 (KMS-12-PE Bcl-2 G101V)
1 | Cc1cc(O)ccc1N(C(=O)c1cc(-c2cc3c(cc2C(=O)N2Cc4ccccc4C[C@H]2C)CN(C(=O)Cc2ccccc2)CC3)n(C)c1C)c1cc(C#N)n(C)c1C [Example 9, N-(5-cyano-1,2-dimethyl-1H-pyrrol-3-yl)-N-(4-hydroxy-2-methylphenyl)-1,2-dimethyl-5-{7-[(3R)-3-methyl-1,2,3,4-tetrahydroisoquinoline-2-carbonyl]-2-(2-phenylacetyl)-1,2,3,4-tetrahydroisoquinolin-6-yl}-1H-pyrrole-3-carboxamide] | 17.9 nM | 0.48 nM | 2.8 nM | 5.8 | 1.27 nM | – | – | 0.0254 µM | 7.01 | 0.178 µM
2 | Cc1c(N(C(=O)c2cc(-c3cc4c(cc3C(=O)N3Cc5ccccc5C[C@H]3C)CN(C(=O)Cc3ccc(F)cc3)CC4)n(C)c2C)c2ccc(O)cc2)cc(C#N)n1C [Example 5, N-(5-cyano-1,2-dimethyl-1H-pyrrol-3-yl)-5-{2-[2-(4-fluorophenyl)acetyl]-7-[(3R)-3-methyl-1,2,3,4-tetrahydroisoquinoline-2-carbonyl]-1,2,3,4-tetrahydroisoquinolin-6-yl}-N-(4-hydroxyphenyl)-1,2-dimethyl-1H-pyrrole-3-carboxamide] | 4.45 nM | 0.18 nM | 1.3 nM | 7.3 | – | – | – | 0.0057 µM | 4.98 | 0.0285 µM
3 | Cc1c(C(=O)N(c2ccccc2)c2cc(C#N)n(CCO)c2C)cc(-c2cc3c(cc2C(=O)N2Cc4ccccc4C[C@H]2C)CN(C(=O)Cc2ccccc2)CC3)n1C [Example 4, N-[5-cyano-1-(2-hydroxyethyl)-2-methyl-pyrrol-3-yl]-1,2-dimethyl-5-[7-[(3R)-3-methyl-3,4-dihydro-1H-isoquinoline-2-carbonyl]-2-(2-phenylacetyl)-3,4-dihydro-1H-isoquinolin-6-yl]-N-phenyl-pyrrole-3-carboxamide] | 11.9 nM | 0.11 nM | 3.2 nM | 30.2 | – | – | – | 0.0048 µM | 25.9 | 0.124 µM
4 | Cc1cccc(CC(=O)N2CCc3cc(-c4cc(C(=O)N(c5ccc(O)cc5)c5cc(C#N)n(C)c5C)c(C)n4C)c(C(=O)N4Cc5ccccc5C[C@H]4C)cc3C2)c1 [Example 1, N-(5-cyano-1,2-dimethyl-1H-pyrrol-3-yl)-N-(4-hydroxyphenyl)-1,2-dimethyl-5-{7-[(3R)-3-methyl-1,2,3,4-tetrahydroisoquinoline-2-carbonyl]-2-[2-(3-methylphenyl)acetyl]-1,2,3,4-tetrahydroisoquinolin-6-yl}-1H-pyrrole-3-carboxamide] | 6.12 nM | 0.34 nM | 2.2 nM | 6.5 | – | – | – | 0.0087 µM | 8.92 | 0.0776 µM

Stronger by Ki (BCL2 F104I), values ahead:

Row | Ki (BCL2 F104I) | Ki (BCL2 WT) | Ki (BCL2 G101V [1]) | TR_FRET EKI G101V/WT selectivty ratio (BCL2 G101V [2]) | Ki (BCL2 D103Y) | Ki (BCLXL WT) | TR_FRET EKI BCLxL/WT selectivty ratio (BCLXL WT) | Compound | IC50 (KMS-12-PE Bcl-2 WT) | Ratio (G101V/WT) (KMS-12-PE Bcl-2 G101V) | IC50 (KMS-12-PE Bcl-2 G101V)
5 | 3.46 nM | 0.06 nM | 1.2 nM | 20.3 | – | 2.8 nM | 47.46 | Cc1c(N(C(=O)c2cc(-c3cc4c(cc3C(=O)N3Cc5ccccc5C[C@H]3C)CN(C(=O)Cc3cccc(N5CCN6CCOC[C@@H]6C5)c3)CC4)n(C)c2C)c2ccccc2)cc(C#N)n1C [Example 8, 5-[2-(2-{3-[(9aS)-hexahydro-1H-piperazino[2,1-c]morpholin-8-yl]phenyl}acetyl)-7-{[(3R)-3-methyl-3,4-dihydro-1H-isoquinolin-2-yl]carbonyl}-3,4-dihydro-1H-isoquinolin-6-yl]-N-(5-cyano-1,2-dimethylpyrrol-3-yl)-1,2-dimethyl-N-phenylpyrrole-3-carboxamide] | 0.0026 µM | 27.6 | 0.0727 µM
6 | 2.6 nM | 0.14 nM | 0.8 nM | 5.7 | 0.88 nM | – | – | COc1cccc(CC(=O)N2CCc3cc(-c4cc(C(=O)N(c5ccc(O)cc5)c5cc(C#N)n(C)c5C)c(C)n4C)c(C(=O)N4Cc5ccccc5C[C@H]4C)cc3C2)c1 [Example 7, N-(5-cyano-1,2-dimethyl-1H-pyrrol-3-yl)-N-(4-hydroxyphenyl)-5-{2-[2-(3-methoxyphenyl)acetyl]-7-[(3R)-3-methyl-1,2,3,4-tetrahydroisoquinoline-2-carbonyl]-1,2,3,4-tetrahydroisoquinolin-6-yl}-1,2-dimethyl-1H-pyrrole-3-carboxamide] | 0.0058 µM | 12.2 | 0.0713 µM
7 | 2.03 nM | 0.13 nM | 0.7 nM | 5.1 | 0.67 nM | 1.1 nM | 8.5 | Cc1c(N(C(=O)c2cc(-c3cc4c(cc3C(=O)N3Cc5ccccc5C[C@H]3C)CN(C(=O)Cc3cccc(N5CCOCC5)c3)CC4)n(C)c2C)c2ccc(O)cc2)cc(C#N)n1C [Example 6, N-(5-cyano-1,2-dimethylpyrrol-3-yl)-N-(4-hydroxyphenyl)-1,2-dimethyl-5-(7-{[(3R)-3-methyl-3,4-dihydro-1H-isoquinolin-2-yl]carbonyl}-2-{2-[3-(morpholin-4-yl)phenyl]acetyl}-3,4-dihydro-1H-isoquinolin-6-yl)pyrrole-3-carboxamide] | 0.0106 µM | 5.34 | 0.0566 µM
8 | 1.65 nM | 0.03 nM | 0.4 nM | 11.7 | 0.12 nM | 1.3 nM | 43.3 | Cc1c(N(C(=O)c2cc(-c3cc4c(cc3C(=O)N3Cc5ccccc5C[C@H]3C)CN(C(=O)Cc3cccc(N5CCN(C)CC5)c3)CC4)n(C)c2C)c2ccccc2)cc(C#N)n1C [Example 3, N-(5-cyano-1,2-dimethylpyrrol-3-yl)-1,2-dimethyl-5-(7-{[(3R)-3-methyl-3,4-dihydro-1H-isoquinolin-2-yl]carbonyl}-2-{2-[3-(4-methylpiperazin-1-yl)phenyl]acetyl}-3,4-dihydro-1H-isoquinolin-6-yl)-N-phenylpyrrole-3-carboxamide] | 0.0054 µM | 9.44 | 0.051 µM
